System: E. coli
Assay: Antagonization assay by lipopolysaccharide (LPS)
Type: cell-based
Set-up: key: +: grown; −: not grown
Experimental: darobactin A is a large compound of 966 Da molecular weight. The limit for penetration into Gram-negative bacteria is around 500 Da. It therefore seemed possible that darobactin A acted on the cell surface, similarly to polymyxin which targets lipopolysaccharide (LPS). In order to test this, activity of darobactin A was tested in the presence of LPS. E. coli was inoculated into 5 mL MHIIB, and grown until the cell density reach to OD600=0.1-0.9. The cell suspension was diluted to OD600=0.002 with 2×MHIIB. 40 μL of LPS solution (final concentration range from 0 to 800 μg/mL) and 2 μL of 2×MIC antibiotic solution (final concentration: polymyxin; 0.5 μg/mL, ampicillin; 16 μg/mL, darobactin A; 16 μg/mL) were mixed in a 96-well plate and fill up to 50 μL by sterile dI water. LPS and antibiotic solutions were mixed with 50 μL of E. coli cell suspensions, and incubated at 37° C. for 20 hours. The growth of E. coli was determined visually (Table 3).

Row | Molecule | growth of E. coli with 2× MIC antibiotic (LPS 0 μg/mL) | growth of E. coli with 2× MIC antibiotic (LPS 3.13 μg/mL) | growth of E. coli with 2× MIC antibiotic (LPS 6.25 μg/mL) | growth of E. coli with 2× MIC antibiotic (LPS 800 μg/mL)
1 | CC1(C)S[C@@H]2[C@H](NC(=O)[C@H](N)c3ccccc3)C(=O)N2[C@H]1C(=O)O [Ampicillin] | − | − | − | −
2 | Polymyxin B | − | − | + | +
